Test systems include XF 498 CNS; DLD-1 colon; RXF-631 renal; SNB-78 CNS; LXFL 529 NSCLC; DMS 114 small cell lung; SN12K1 renal; P388/ADR leukemia; P388 leukemia.
What all share (test): NCI tumour cell line growth inhibition, 48 h

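Protocol summary: plate cells (96-well), add compound at 5 concentrations, incubate 48 h, interpolate endpoints linearly. The concentration for full growth arrest is given as TGI.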

In the case of `CNC(=O)OC1/C(C)=C\C(C)C(O)C(OC)CC(C)CC2=C(OC)C(=O)C=C(C2=O)N(C)C(=O)/C(C)=C/C=C\C1OC` (centres undefined), the TGI is 10 µM in the test on XF 498 CNS; 16.4 µM in the test on DLD-1 colon; 41.2 µM in the test with RXF-631 renal; 30.3 µM with SNB-78 CNS; 19.6 µM in the test on LXFL 529 NSCLC; 12.6 µM with DMS 114 small cell lung.
Consider `CN1C/C(=C\c2ccccc2)C2=NN(C(N)=S)[C@H](c3ccccc3)[C@@H]2C1`, for which the TGI in the test with XF 498 CNS, in the test on DLD-1 colon, in the test with SNB-78 CNS and in the test with LXFL 529 NSCLC was over 100 µM throughout.
Regarding `CCN(CC)C(=O)Cc1[nH][nH]c(=O)c1C(=O)N(CC)CC`, the TGI with XF 498 CNS, in the test on DLD-1 colon, with SNB-78 CNS, with LXFL 529 NSCLC and with DMS 114 small cell lung was over 100 µM each time.
Turning to `CCOC(=O)CN(CC)C(=O)NC12CC3CC(CC(C3)C1)C2`, the TGI in the test with XF 498 CNS is 293 µM; in the test with DLD-1 colon, over 119 µM; in the test on SN12K1 renal, 569 µM; with P388/ADR leukemia, 640 µM; with SNB-78 CNS it was 709 µM; with DMS 114 small cell lung it was 363 µM. Moreover, in the test with P388 leukemia, the TGI is 508 µM.
On to `CCCC(O)c1ccc2[nH]c3c(C)cc([N+](=O)[O-])c(C)c3c2c1` (centres undefined), for which the TGI in the test with XF 498 CNS, in the test on DLD-1 colon, with SNB-78 CNS and in the test with DMS 114 small cell lung was over 100 µM in each case.
Turning to `COC(OC)c1cccc2c1C(=O)CCC1(CC2)OCCCCO1`, the TGI in the test on DLD-1 colon, with SNB-78 CNS, in the test with LXFL 529 NSCLC and with DMS 114 small cell lung was over 100 µM in each case.
Turning to `O=C1N[C@@H]([C@H]2CC[C@H](Cl)CN2)C(=O)N[C@H]1[C@H]1CC[C@H](Cl)CN1`, the TGI in the test with XF 498 CNS turned out to be 0.819 µM; in the test with DLD-1 colon, 286 µM; with SN12K1 renal, 13.5 µM; in the test on P388/ADR leukemia, 23.1 µM; with SNB-78 CNS, 87.8 µM; in the test on DMS 114 small cell lung it was 10.6 µM. Moreover, the TGI in the test with P388 leukemia amounted to 20.3 µM.
For the molecule `COc1ccc(N2C(=O)[C@@H]3[C@@H]4CC(C)CC[C@@H]4c4c([nH]c5ccccc45)[C@@H]3C2=O)cc1` (some centres undefined), the TGI is 26 µM in the test on XF 498 CNS; over 58.4 µM in the test on DLD-1 colon; 27.2 µM in the test with SNB-78 CNS; over 88 µM in the test on LXFL 529 NSCLC; over 59.5 µM in the test on DMS 114 small cell lung.
In the case of `CCCOC(=O)CCC(NC(=O)c1ccc(Nc2nc3ccccc3nc2-c2cccs2)cc1)C(=O)OCCC` (centres undefined), the TGI in the test on XF 498 CNS, with RXF-631 renal, with SNB-78 CNS and in the test on LXFL 529 NSCLC was over 100 µM each time.
For the molecule `COC1=CC(=O)[C@@]2(C)C(C)[C@H](c3ccccc3)[C@H]2C1=O` (some centres undefined), the TGI with XF 498 CNS, with DLD-1 colon, in the test with RXF-631 renal and in the test with LXFL 529 NSCLC was over 100 µM throughout.
With `O=S(c1ccc(O)cc1)c1ccc(O)cc1`, the TGI in the test with XF 498 CNS, in the test on DLD-1 colon, in the test with RXF-631 renal and with DMS 114 small cell lung was over 100 µM in each case.
Take `CC(=O)OC1CCC2(C)C(CCC3C2CCC2(C)C(c4ccc(=O)oc4)C(OC(C)=O)CC32O)C1` (centres undefined): the TGI amounted to 0.0771 µM in the test with XF 498 CNS; 0.0293 µM in the test with DLD-1 colon; 0.0296 µM in the test on SN12K1 renal; 125 µM in the test on P388/ADR leukemia; 0.112 µM in the test with SNB-78 CNS; 125 µM with P388 leukemia.
On to `O=C1OCc2nc3c(c(-c4ccccc4C(F)(F)F)c21)C(=O)OC3`, for which the TGI in the test with DLD-1 colon, with SNB-78 CNS, in the test on LXFL 529 NSCLC and in the test with DMS 114 small cell lung was over 100 µM in each case.
With `O=C1C=C2SC3C[C@@]24CC1(O)[N+]1=c2c4c(c(O)c4c2=C(C=N4)CC1)N3`, the TGI in the test on XF 498 CNS was determined as 3.28 µM; in the test with DLD-1 colon, 2.65 µM; in the test on SN12K1 renal, 2.73 µM; with SNB-78 CNS, 4.21 µM; in the test with DMS 114 small cell lung, 0.504 µM; in the test on P388 leukemia, 4.78 µM.
Take `Cc1[nH]c2c(C)c3c([nH]c4ccc(Cl)cc43)c(C)c2c(=O)c1C`: the TGI in the test with XF 498 CNS is over 100 µM; in the test on DLD-1 colon it was 73.3 µM; in the test with SNB-78 CNS, over 100 µM; with DMS 114 small cell lung, 83.3 µM.

(Values after PubChem BioAssay (NCI).)
